Measured values reported in patent publication US4434290A, “Pyrido (4,3-B) carbazoles substituted in the 1 position by a polyamine chain” (priority 1978, dated 1984).
pIC50: −log10 of the molar value.

Experiments:
[1] = system: Friend's virus (VFA); assay: Anemia inducing Friend's virus, measurement of survival time (Table XVIII); format: in vivo, mice; settings: 15 mg/kg; for Death interval / Mean survival time / ILS %: D+1
Excerpt: (§1) The following experiments related to the treatment of mice inoculated by the virus of Friend's leukemia.
(§2) In these experiments DBA2, male mice, aged from 2 to 3 months, of weight around 20 g, were used.
(§3) An anemia inducing strain of Friend's virus (VFA) maintained for several years in the laboratory was used. The viral stock was constituted by an acellular supernatant liquor obtained by the centrifugation of a ground product of leukemic spleens, carried out in an 0.5 M PBS-saccharose solution. The assay of the stock was done in vivo by the method described by JASMIN et al [J. Nat. Cancer Inst. 1974,53, 469-474]. The measurement is expressed in SD50 (50% spleen enlarging dose).
In another series of tests, the mortality of the mice, in which the Friend's virus was injected (VFA) by the intraperitoneal route (dilution 1/800) and the death intervalwere determined, the mean survival time and the percentage of increased life span for the compound 27 according to the invention inoculated on day D+1 at the dose of 15 mg/kg were calculated.

[2] = system: cells of viro-induced leukemia of Friend; assay: In vitro cytotoxic study on cells of the Friend leukemia of the mouse (Table XV); format: cell-based
Method: "In vitro" cytotoxic study of the compounds of the invention on the cells of viro-induced leukemia of Friend in the mouse [J. Exp. Med. 1957, 105, p. 307-318].
The cells were grown in suspension in the RPMI 1640 medium [catalogue of GIBCO Bio-Cult-Ltd, Washington Road Sandyford Industrial Estate Paisley PA3 4EP Renfrewshire Scotland] supplement with 20% of embryonary calf serum, with penicillin and with streptopycin. The duplication time of the culture was about 11 hours. The growth factor is equal to 1 or very close to 1 (all the cells multiplying).
The cultures were seeded at times t=0 at the concentration of 2×10^5 cells per ml in Falcon dishes containing 4 ml of medium. 24 hours later, the product to be tested (in solution, in acetic water) was added, at the moment when the cells were in the exponential growth phase. 24 hours after the addition of the product, the cells were counted and the percentage of living cells determined by an exclusion test with trypan blue.

[3] = system: virus of Friend's leukemia (VFA); assay: Friend's leukemia, measurement of splenomegaly (Table XVII); format: in vivo, DBA2 male mice; settings: for Mean weight of the spleen: 10 mg/kg (0.2 mg/mouse), day +15; for Mean weight of the spleen / Number of leukemic mice: D + 1; for Number of leukemic mice: 10 mg/kg, spleen >250 mg
Excerpt: as §1, §2, §3
The Friend virus was injected in the mouse by the intraperitoneal route. […] The spleens were removed and then weighed individually.

[4] = system: L1210 cells; assay: In vitro cytotoxic study on leukemia L1210 cells, complete inhibition of growth (Table XVI); format: cell-based
Method: Cytotoxic "in vitro" study on hamster cells on leukemia L1210 cells of the serie.
After 5 hours, the cells were attached to a plastic support and the products to be tested whose solutions had been formed in water or in DMSO (dimethylsulphoxide) if the product was little soluble in water, was added. In the latter case a control was carried out with the same final concentration of DMSO in the culture medium.
The state of the cells was examined 24, 48 and 72 hours later.
In the case of the L1210 cells, the tests were carried out in a medium gelled with agarose, the L1210 cells growing in suspension.

[5] = system: Friend's virus (VFA); assay: Anemia inducing Friend's virus, dose/effect relationship (Table XIX); format: in vivo, mice; settings: for Death interval / ILS % / Mean survival time: VFA 1/800, D+1; for Surviving mice: groups of 10 mice
Excerpt: as §1, §2, §3
Experimental groups of 10 mice were used, into which the VFA virus (dilution 1/800-% of leukemias=100%) was injected on day Do. The compound 27 according to the invention was then injected at day D+1 at various doses according to the groups and the death interval, the mean survival time and the percentage of increased life span were determined.

[6] = system: leukemia L1210; assay: Leukemia L1210 in vivo, dose/effect relationship (Table XIV); design: species or system mice; settings: for Death interval / ILS % / Mean survival time: 10^5 cells; for Death interval / ILS % / Mean survival time / Surviving mice: D+1; for Surviving mice: groups of six mice
Method: The properties were determined by the curative action inoculated experimental leukemia L1210. This leukemia was maintained on B6 D2 Fl (C 57 Bl/6×DBA/2) Fl mice in the proportion of 6 or 10 mice per experimental batch. The compounds to be tested were injected by the intraperitoneal route one or several days after inoculation of the cells (1 injection only). The death interval was determined, the first figure of the Table indicating the date of the first mouse death and the second the date of the last mouse death. The mean survival time was also measured (MST). A characteristic value is the percentage of increased life span (ILS %). This value (Cancer. Res. 1971, 31, 1883-1887) is the ratio: [formula] where S^t =survival of treated animals and
S^c =survival of control animals.
The study was carried out on experimental groups of six mice by the previously defined method. 10^5 cells were injected at day Do. […] The death interval was determined, the mean survival time was measured (MST) and the percentage of increased life span was calculated (ILS %) by the above-defined formula.

[7] = VFA 1/800, % of leukemias = 99.8
[8] = VFA 1/800, % of leukemias = 100%

CCN(CC)CCCNc1nccc2c(C)c3[nH]c4ccc(OC)cc4c3c(C)c12 [Compound 27]
Death interval [1, 7]: 20-64 | Mean survival time [1, 7]: 42.2 | ILS % ([1]; VFA 1/800, % of leukemias = 99.8, on the surviving mice): 40% | Survive ([1]; VFA 1/800, % of leukemias = 99.8, group of 10 mice): 0 | Death interval [1, 8]: 48-72 | ILS % [1, 8]: 143.85% | Mean survival time [1, 8]: 59.5 | pIC50 ([2]; Mus musculus, 24 h, read-out: LD 50 (50% lethal dose)): 6.35 | IC100 ([2]; Mus musculus, 24 h, read-out: LD 100 (100% lethal dose)): 1.2 µM | LD 50 HUM / LD 50 product ([2]; ratio to reference HUM): 0.65 | protective power on Friend's leukemia ([3]; mouse, in vivo): has a protective power on Friend's leukemia | Mean weight of the spleen ([3]; virus dilution 1/800): 183 mg | Number of leukemic mice ([3]; virus dilution 1/800): 2/10 | Mean weight of the spleen ([3]; virus dilution 1/1600): 199 mg | Number of leukemic mice ([3]; virus dilution 1/1600): 0/5 | Mean weight of the spleen ([3]; virus dilution 1/3200): 220 mg | Number of leukemic mice ([3]; virus dilution 1/3200): 1/5 | IC (100 (complete growth inhibition, minimal)) ([4]; Mus musculus, L1210, medium gelled with agarose, read-out: Minimal dose leading to a complete inhibition of the growth): 0.6 µM | activity compared with the reference BD40 ([4]; summary of Table XVI): almost as active as the reference dipyrido-indole (BD40) | deaths through toxicity ([5]; 15 mg/kg, group of 10 mice): Two | dose/effect relationship ([5]; 5-15 mg/kg): proportional to the inoculated dose | Death interval ([5]; 5 mg/kg): 25-36 | ILS % ([5]; 5 mg/kg): 31.78% | Mean survival time ([5]; 5 mg/kg): 31.1 | Death interval ([5]; 10 mg/kg): 32-64 | ILS % ([5]; 10 mg/kg): 103% | Mean survival time ([5]; 10 mg/kg): 45.8 | Death interval ([5]; 15 mg/kg): 33-63 | Mean survival time ([5]; 15 mg/kg): 49.9 | ILS % ([5]; 15 mg/kg, toxic deaths excluded): 122% | Surviving mice ([5]; 5 mg/kg): 0 mice | Surviving mice ([5]; 10 mg/kg): 0 mice | Surviving mice ([5]; 15 mg/kg): 0 mice | dose/effect relationship ([6]; 5-20 mg/kg, day D+1): proportional to the dose inoculated | Death interval ([6]; 5 mg/kg): 16-24 | ILS % ([6]; 5 mg/kg): 80.4% | Mean survival time ([6]; 5 mg/kg): 19.3 | Death interval ([6]; 10 mg/kg): 14-21 | ILS % ([6]; 10 mg/kg): 57% | Mean survival time ([6]; 10 mg/kg): 16.8 | Death interval ([6]; 15 mg/kg): 13-31 | ILS % ([6]; 15 mg/kg): 96.3% | Mean survival time ([6]; 15 mg/kg): 21 | Death interval ([6]; 20 mg/kg): 15-25 | ILS % ([6]; 20 mg/kg): 75.7% | Mean survival time ([6]; 20 mg/kg): 18.8 | Surviving mice ([6]; 5 mg/kg): 0 mice | Surviving mice ([6]; 10 mg/kg): 0 mice | Surviving mice ([6]; 15 mg/kg): 0 mice | Surviving mice ([6]; 20 mg/kg): 1 mice
